Data: patent US8853216B2, “Hydroxylated pyrimidyl cyclopentane as AKT protein kinase inhibitor” (Array BioPharma, Inc., priority 2008, dated 2014)

Target: full-length human recombinant active AKT-1 (Homo sapiens, UniProt P31749)
Test: AKT-1 Kinase Assay (IMAP fluorescence polarization)
Assay type: biochemical
Settings: phosphorylation of fluorescein-labeled Crosstide peptide by AKT-1, 60 minute incubation at ambient temperature
Description: The activity of the compound described in the present invention may be determined by the following kinase assay, which measures the phosphorylation of a fluorescently-labeled peptide by full-length human recombinant active AKT-1 by fluorescent polarization using a commercially available IMAP kit.
The assay materials are obtained from an IMAP AKT Assay Bulk Kit, product #R8059, from Molecular Devices, Sunnyvale, Calif. The kit materials include an IMAP Reaction Buffer (5×). The diluted 1×IMAP Reaction Buffer contained 10 mM Tris-HCl, pH 7.2, 10 mM MgCl2, 0.1% BSA, 0.05% NaN3. DTT is routinely added to a final concentration of 1 mM immediately prior to use. Also included is IMAP Binding Buffer (5×), and IMAP Binding Reagent. The Binding Solution is prepared as a 1:400 dilution of IMAP Binding Reagent into 1×IMAP Binding Buffer.
The fluorescein-labeled AKT Substrate (Crosstide) has the sequence (Fl)-GRPRTSSFAEG. A stock solution of 20 μM is made up in 1×IMAP Reaction Buffer. […]
The assay is initiated by the addition of 2.5-μL aliquots of a solution containing 200 nM of fluorescently-labeled peptide substrate and 4 nM AKT-1. […] The reaction is then quenched by the addition of 15 μL of Binding Solution, centrifuged again and incubated for an additional 30 minutes at ambient temperature prior to reading on a Victor 1420 Multilabel HTS Counter configured to measure fluorescence polarization.

full-length human recombinant active AKT-1, sequence (P31749 whole entry): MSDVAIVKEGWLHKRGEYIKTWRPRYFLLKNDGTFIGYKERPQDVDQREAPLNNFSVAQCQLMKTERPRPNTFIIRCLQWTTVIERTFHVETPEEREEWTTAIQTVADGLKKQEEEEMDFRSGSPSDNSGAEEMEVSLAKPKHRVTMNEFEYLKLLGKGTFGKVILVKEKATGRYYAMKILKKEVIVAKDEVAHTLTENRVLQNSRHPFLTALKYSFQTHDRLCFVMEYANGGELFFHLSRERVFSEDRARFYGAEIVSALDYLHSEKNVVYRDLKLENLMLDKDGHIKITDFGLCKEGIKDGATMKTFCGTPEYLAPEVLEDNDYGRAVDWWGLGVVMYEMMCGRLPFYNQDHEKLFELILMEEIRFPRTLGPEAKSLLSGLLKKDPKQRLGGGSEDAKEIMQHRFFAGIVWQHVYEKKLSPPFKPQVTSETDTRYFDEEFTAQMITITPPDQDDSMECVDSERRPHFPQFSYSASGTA

- IC50: < 500 nM
SMILES: CO[C@H]1CC[C@H](NC[C@@H](C(=O)N2CCN(c3ncnc4c3[C@H](C)C[C@H]4O)CC2)c2ccc(Cl)c(F)c2)CC1 [Example 1, (S)-2-(4-chloro-3-fluorophenyl)-1-(4-((5R,7R)-7-hydroxy-5-methyl-6,7-dihydro-5H-cyclopenta[d]pyrimidin-4-yl)piperazin-1-yl)-3-((1r,4S)-4-methoxycyclohexylamino)propan-1-one]
